# Experiments:
# [1] = system: purified SDH of Ketogulonigenium sp. ADM 291-19; experiment: Substrate specificity of purified SDH, PMS-DCIP method; assay type: biochemical; conditions: 1-Propanol = 100
# Experimental: The dehydrogenase enzyme activity was assayed spectrophotometrically using 2,6-dichlorophenol indophenol (DCIP) as an artificial electron acceptor and phenazine methosulphate (PMS) as an electron mediator. […] The rate of decrease in absorbance at 522 nm was determined. One unit of enzyme activity was defined as the amount of enzyme catalyzing reduction of 1 μmol of DCIP per minute.
# (§1) First, the periplasmic proteins from the cells of K. robustum ADM X6L and Ketogulonigenium sp. ADM 291-19 obtained in Step 1 of Example 1 were prepared by osmotic shock fractionation as described in Step 3 of Example 1. About 50 ml of osmotic shock fluid containing periplasmic proteins was loaded onto a DEAE-TSK 650 (S) (Merck) column (2.5×15 cm) previously equilibrated with 10 mM Tris·HCl buffer (pH 8.0). The column was first washed with 80 ml of 10 mM Tris·HCl buffer (pH 8.0) containing 0.1 M NaCl, followed by a gradient elution with 600 ml of the same buffer containing 0.1-0.5 M NaCl. Fractions containing 5 ml of eluant were collected and assayed for the SDH enzyme activities with D-sorbitol, L-sorbose and glyoxal as substrate. […] At about 0.15 M NaCl, eluted red fractions that probably contained cytochrome c.
# (§2) Active fractions eluted from DEAE column were pooled and further purified by gel filtration column chromatography. The active fractions were concentrated by about 20 fold with ultrafiltration in Centricon 30 (Amicon). The concentrate was loaded onto Superose 12 (Pharmacia) and eluted isocratically with 50 mM sodium phosphate buffer (pH 7.0) containing 0.15 M NaCl.
# (§3) The purified enzymes were active toward D-sorbitol, L-sorbose and glyoxal.
# [2] = system: purified SDH of K. robustum ADM X6L; experiment: as above; assay type: biochemical, Ketogulonigenium robustum ADM X6L; conditions: 1-Propanol = 100
# Experimental: (§4) The dehydrogenase enzyme activity was assayed spectrophotometrically using 2,6-dichlorophenol indophenol (DCIP) as an artificial electron acceptor and phenazine methosulphate (PMS) as an electron mediator. The reaction mixture contained 50 mM Tris·HCl buffer (pH 8.0), 10 mM MgCl2, 5 mM CaCl2, 5 mM KCN, 0.1 mM PMS, 0.12 mM DCIP, a substrate as D-sorbitol (250 mM), L-sorbose (250 mM) or glyoxal (50 mM) and enzyme solution in a total volumn of 1.0 ml. The rate of decrease in absorbance at 522 nm was determined. One unit of enzyme activity was defined as the amount of enzyme catalyzing reduction of 1 μmol of DCIP per minute.
# as §1, §2, §3
# SDH = SDH activities in osmotic shock fractions, PMS-DCIP method; assay type: biochemical
# Experimental: For more detailed localization study, periplasmic fraction was enriched by the method of osmotic shock (Neu, H. C. and Heppel, L. A., J. Biol. Chem., 240:3685 (1965)). Wet cells were resuspended at about 0.1 g/ml in 20% sucrose-0.03 M Tris·HCl buffer (pH 8.0) at room temperature. Di-sodium EDTA was added to 1 mM and the flask was shaken at 180 rpm at room temperature for 10 min. After centrifugation at 16,000 g for 20 min at 4° C., the supernatant was removed and the pellet was rapidly mixed with cold distilled water of the same volume as the original cell suspension and shaken in ice bucket in a shaker for 10 min. The mixture was centrifuged again to obtain the supernatant called “osmotic shock fluid”. The pellet was sonicated in the same buffer, centrifuged and the supernatant was obtained as “pellet sonicate”.
# as §4
# For further localization of the enzymes to periplasm or cytoplasm, periplasm was enriched by osmotic shock method as described in Step 3 of Example 1. In this method, the Tris-Sucrose wash and the osmotic shock fluid represent the periplasmic fraction and the pellet sonicate represents the cytoplasm and the cytoplasmic membrane. […] The remaining activity in pellet sonicate could be due to the incomplete release of periplasm by osmotic shock. Typical enzyme activity assay for SDH and β-galactosidase for fractions obtained by osmotic shock fractionation is shown in Table 3.
# purified SDH enzymes = experiment: Activity of the purified SDH enzymes toward substrates; assay type: biochemical, K. robustum ADM X6L and Ketogulonigenium sp. ADM 291-19; conditions: purified SDH enzymes of both strains
# Experimental: as §1, §2, §3
# [3] = system: dehydrogenase enzyme activity (SDH) of K. robustum ADM X6L; experiment: Enzyme activity in cellular fractions, Ferric-Dupanol method (localization); assay type: biochemical, Ketogulonigenium robustum ADM X6L
# Experimental: (§5) Cells were harvested by centrifugation at 12,000 g for 10 min, washed once with 10 mM Tris·HCl buffer (pH 8.0) and disrupted by sonication in a Branson Sonifier 450 for 15 min at 50% duty cycle in ice. The homogenate thus prepared was centrifuged at 12,000 g for 5 min to remove the cell debris. The resulting supernatant was centrifuged at 100,000 g for 90 min to get the supernatant as soluble fraction and the precipitate as crude membrane fraction. The crude membrane fraction was solubilized with 1.5% n-octyl glucoside by stirring for 2 hours at 4° C. The resultant suspension was centrifuged at 12,000 g for 10 min to give a supernatant, designated as solubilized membrane fraction.
# (§6) Enzyme activity was determined also by the Ferric-Dupanol method (Wood, W. A. et al., Meth. Enzymol., 5, 287 (1962)). The enzyme was preincubated for 5 min at 25° C. The reaction was started by addition of 10 mM (final conc.) potassium ferricyanide and 250 mM (final conc.) D-sorbitol, L-sorbose, or glyoxal. After an appropriate time, the reaction was stopped by adding the ferric sulfate-Dupanol solution (Fe2(SO4)3.nH2O 5 g/l, Dupanol (sodium lauryl sulfate) 3 g/l and 85% phosphoric acid 95 ml/l) and the absorbance of the Prussian color developed was determined at 660 nm in a spectrophotometer.
# (§7) Enzyme activities towards D-sorbitol, L-sorbose and glyoxal in different cellular fractions were determined for enzyme localization in K. robustum ADM X6L and Ketogulonigenium sp. ADM 291-19. In both cases, most of the enzyme activity detected in crude cell extract was found in the soluble fraction and the activity in solubilized membrane fraction was negligible when assayed with Ferric-Dupanol method.
# [4] = system: dehydrogenase enzyme activity (SDH) of Ketogulonigenium sp. ADM 291-19; experiment: as above; assay type: biochemical
# Experimental: as §5, §6, §7
# [5] = system: K. robustum ADM X6L transformants; experiment: Bioconversion of D-sorbitol by transformants, HPLC of culture supernatant; assay type: cell-based, Ketogulonigenium robustum ADM X6L; conditions: for improvement of L-sorbose production from D-sorbitol upon overexpression: flask scale experiment, versus pXH2 control; for L-sorbose production from D-sorbitol upon overexpression (in words): flask scale experiments
# Experimental: For expression of the three SDH genes in K. robustum strains, the genes with their own promoters were subcloned into the vector, pXH2/K5. These plasmids were transformed into the strains, K. robustum ADM X6L and 86-96 (NRRL B-21630), by electroporation. In this case, gene dosage effect may be expected due to the apparent high copy number of the plasmid pXH2/K5. The transformants were analyzed by HPLC for improved conversion activity upon overexpression of each SDH gene using D-sorbitol and L-sorbose as substrate.
# The effect of overexpression of the three SDH genes in bioconversion activity was analyzed by HPLC analysis of the product profile of the culture supernatant of transformants in a medium containing D-sorbitol or L-sorbose as substrate. The transformants were cultivated overnight in RM medium containing 20 μg/ml of Kanamycin. This overnight culture was used to inoculate the 25 ml RM medium (supplemented with 20 μg/ml of Kanamycin) containing 20 g/l of D-sorbitol or 20 g/l of L-sorbose as substrate instead of mannitol. The culture supernatant samples were taken in a 12-hour interval and were analyzed by HPLC (Gilson HPLC with RI detector (ERC-7515A, ERC Inc.)) equipped with Asted XL automatic sample injector. Samples were loaded on two 2 mm×300 mm×7.8 mm Aminex HPX-87H columns (BioRad) arranged in series to provide a total column length of 600 mm. The column was run at 50° C. at a flow rate of 0.5 ml/min. The peaks were identified and the concentration was determined by comparison with those of the standards using glycerol as internal standard.
# K. robustum ADM X6L transformants harboring the pXSDH1, pXSDH2 or pXSDH3 were cultivated with D-sorbitol or L-sorbose as substrate. HPLC analysis of the products from D-sorbitol (Table 10) or L-sorbose (Table 11) is shown below. A transformant harboring pXH2 served as control.
molecule,measurement,setting,value
CCCO [1-Propanol],"% relative activity, ADM291-19",[1]; substrate 50 mM,100%
same,"% relative activity, ADM X6L",[2]; substrate 50 mM,100%
O=C(CO)[C@@H](O)[C@H](O)[C@H](O)CO [D-Fructose],"% relative activity, ADM291-19",[1]; substrate 250 mM,11.7%
same,"% relative activity, ADM X6L",[2]; substrate 250 mM,8.0%
O=C(O)[C@H](O)[C@@H](O)[C@H](O)[C@H](O)CO [D-Gluconate],"% relative activity, ADM291-19",[1]; substrate 250 mM,20.0%
same,"% relative activity, ADM X6L",[2]; substrate 250 mM,30.6%
O=C[C@H](O)[C@@H](O)[C@H](O)[C@H](O)CO [D-Glucose],"% relative activity, ADM291-19",[1]; substrate 250 mM,20.0%
same,"% relative activity, ADM X6L",[2]; substrate 250 mM,27.6%
OC[C@@H](O)[C@@H](O)[C@H](O)[C@H](O)CO [D-Mannitol],"% relative activity, ADM291-19",[1]; substrate 100 mM,0%
same,"% relative activity, ADM X6L",[2]; substrate 100 mM,26.6%
OC[C@@H](O)[C@@H](O)[C@H](O)[C@@H](O)CO [D-sorbitol],"SDH activity, Osmotic Shock Fluid",SDH; Osmotic Shock Fluid (periplasmic fraction),0.45 ΔOD/min/50 μl enzyme
same,"SDH activity, Pellet Sonicate",SDH; Pellet Sonicate (cytoplasm and cytoplasmic membrane),0.68 ΔOD/min/50 μl enzyme
same,"SDH activity, Tris-Sucrose Wash",SDH; Tris-Sucrose Wash (periplasmic fraction),0.31 ΔOD/min/50 μl enzyme
same,activity of the purified enzymes toward the substrate (in words),purified SDH enzymes,active
same,"enzyme activity, Cell Free Extract",[3]; Cell Free Extract,0.92 ΔOD/min/4 μl enzyme
same,"enzyme activity, Membrane Fraction",[3]; Membrane Fraction,0.01 ΔOD/min/4 μl enzyme
same,"enzyme activity, Soluble Fraction",[3]; Soluble Fraction,0.90 ΔOD/min/4 μl enzyme
same,"enzyme activity, Cell Free Extract",[4]; Cell Free Extract,0.66 ΔOD/min/2 μl enzyme
same,"enzyme activity, Membrane Fraction",[4]; Membrane Fraction,0.00 ΔOD/min/2 μl enzyme
same,"enzyme activity, Soluble Fraction",[4]; Soluble Fraction,0.65 ΔOD/min/2 μl enzyme
same,"% relative activity, ADM291-19",[1]; substrate 250 mM,12.4%
same,"% relative activity, ADM X6L",[2]; substrate 250 mM,12.6%
CCO [Ethanol],"% relative activity, ADM291-19",[1]; substrate 50 mM,38.0%
same,"% relative activity, ADM X6L",[2]; substrate 50 mM,20.0%
OCC(O)CO [Glycerol],"% relative activity, ADM291-19",[1]; substrate 250 mM,32.5%
same,"% relative activity, ADM X6L",[2]; substrate 250 mM,56.5%
"SDH3: sorbitol dehydrogenase of K. robustum ADM 86-96, 580 amino acids (SEQ ID NO:8) (protein, listed as Ketogulonigenium sp.) MRPTTLLRTSAAVLLLGPIPAFAQVTPITDELLANPPAGEWINYGRNQENYRHSPLEQITTDNVGQLQLVWARGMEAGAVQVTPMIHDGVMYLANPGDVIQAIDAKTGDLMWEHRRQLPPVASLNGQGDRKRGVALYGTNLYFTSWDNHLVALDMATGQVVFDVERGSGDDGLTSNTSGPIVANGVIVAGSTCQYSPYGCFVSGHDPASGEELWRNYFIPQAGEEGDETWGNDFESRWMTGVWGQLTYDPVTNLVHYGSTGVGPASETQRGTPGGTLYGTNTRFAVRPDTGEIVWRHQTLPRDNWDQECTFEMMVANVDVQPAADMDGVQAINPNATTGERRVLTGIPCKTGTMWQFDAETGEFLWARDTNYQNLIASIDETGLVTVNEDSVLTQLDTDYDICPTFLGGRDWPSAALNPDSGIYFIPLNNACVDIMAVDQEFSALDVYNTSASYKLAPGFENMGRIDAIDISTGKTLWSAERLASNYSPVLSTAGGVLFNGGTDRYLRALSQETGETLWQTRLASVATGQAISYEIDGTQYVAIAGGGSTYGTNQNRALSEAIDSTTIGNAVYVFALPQQ",improvement of L-sorbose production from D-sorbitol upon overexpression,[5],~3 times
same,L-sorbose production from D-sorbitol upon overexpression (in words),[5],significantly improved
"SDH1: sorbitol dehydrogenase of K. robustum ADM 86-96, 578 amino acids (SEQ ID NO:5) (protein, listed as Ketogulonigenium sp.) MKSNSLLLASVAAVAFFAVPAFADVTPVTDELLANPPAGEWISYGRNQENYRHSPLNQITPDNVGQLQLVWARGMNPGVVQVTPLIHDGVMYLANPGDIIQAIDAKTGDLIWEHRRQLPETSTLSSLGDRKRGIALYGTNVYFVSWDNHMVALDAASGQVVFDVDRGQGDERVSNSSGPIVANGVIVAGSTCQYSPFGCFVSGHDASTGEELWRNYFIPQAGEEGDETWGNDYEARWMTGVWGQITYDPTTNLVFYGSSAVGPASEVQRGTPGGTLYGTNTRFAVRPDTGEVVWRHQTLPRDNWDQECTFEMMVANVDVQPAADMDGVQAINPNAATGERRVLTGVPCKTGTMWQFDAETGEFLWARDTNYQNMISSIDETGLVTVNEDIILKDLDTDYRICPTFLGGRDWPSASLNPDSGIYFIPLNNACADLAAVDQEFTAMDVYNTSATYLLAPEKENMGRIDAIDISTGKTLWSVERLASNYSPVLSTAGGVLFNGGSDRYFRALSEETGETLWQTRLATVASGQAISYELDGVQYVAIAGGGNTYGTNLNSNIGATIDSTSIGNAVYVFALPQ",improvement of L-sorbose production from D-sorbitol upon overexpression,[5],~2 times
same,L-sorbose production from D-sorbitol upon overexpression (in words),[5],significantly improved

# From patent publication US20030228672A1, “Sorbitol dehydrogenases of ketogulonigenium species, genes and methods of use thereof” (priority 2002, published 2003)
